Tests used:
[1] = tested on: Collagen induced arthritis; assay: Collagen induced arthritis (CIA), mice; assay type: in vivo; settings: 3 mg/kg p.o.
Description: (§1) Collagen induced arthritis is a commonly used and widely accepted arthritis model. Immunologically, the model is dominated by a Th1 response; it is antigen specific and depends on both the B- and T-cell response. This model is responsive to most therapies effective in rheumatoid arthritis in humans except NSAIDs.
In order to induce arthritis, the mice were immunised intradermally (i.d.) at the base of the tail with 100 μl of CII emulsion (2 mg/ml) in FCA (2 mg/ml of M. tuberculosis). The mice were re-immunised i.d. 21 days later with 100 μl of CII emulsion (1 mg/ml) in FIA. The test compound was administrated once daily from the initiation of treatment to the day before the end of the experiment.
(§2) Starting from 21 days after the induction of CIA, the mice were weighed twice a week and the inflammation of the four paws was graded from 0 to 4: • 0: Normal • 1: Swelling of 1-2 toe joints or swelling of metatarsus/metacarpus without swelling of toe joints. • 2: Swelling of >2 toe joints or swelling of toe joints and metatarsus/metacarpus • 3: Severe swelling of the paw including metatarsus/metacarpus • 4: Very severe swelling of the paw resulting in chapped skin. The animals are euthanised. The sum of the scores from the four paws is reported as the arthritis score for each mouse. The maximum score obtainable is therefore 16.
(§3) The area under curve (AUC) of the arthritis score was calculated for all mice and used as a disease index. The treatment effect (inhibitory effect) of the compounds is calculated as:
(§4) 1−(AUCtreatment group)/(AUCvehicle group)
The medians of the AUC from all groups were compared using the Kruskal-Wallis test. When P<0.05 in the Kruskal-Wallis test, the Mann Whitney test was used to compare the AUCs for individual mice in drug treated groups with the AUC for mice in the control group which were treated with vehicle (significance level P<0.05).

[2] = tested on: Collagen induced arthritis; assay: Collagen induced arthritis (CIA), rats; assay type: in vivo; settings: 5 mg/kg p.o.
Excerpt: as §1, §2, §3, §4
Lewis inbred rats (Harlan), 6 females per group, approximately 11 weeks old were immunised intradermally (i.d.) at the base of the tail with 200 μl of CII emulsion (1 mg/ml) in incomplete Freunds adjuvant (FIA). The rats were re-immunised 10 days later with 50 μl of CII emulsion (1 mg/ml) in FIA. From day 12 the inflammation of each paw was graded and calculated as described for the mouse model. The test-compound was administrated orally from day 10 or from day 14. The last day of treatment was the day before the end of the experiment.

[3] = Table 7, first experiment, printed treated from day 10
[4] = Table 7, first experiment, treated from day 10
[5] = Table 8, second experiment, treated from day 10
[6] = Table 8, second experiment, treated from day 14

SMILES: C[C@]12C=CC(=O)C=C1CC[C@@H]1[C@@H]2[C@@H](O)C[C@@]2(C)[C@H]1CC[C@]2(O)C(=O)CO [Prednisolone]
- AUC of arthritis score, Average ([1]; Table 5): 27
- Percent of vehicle control (group 1) ([1]; Table 5, vehicle day 10): −84%
- AUC of arthritis score, Average ([1]; Table 6): 27
- Percent of vehicle control (group 1) ([1]; Table 6, vehicle day 28): −78%
- AUC of arthritis score, Average [2, 3]: 9
- Percent of vehicle control (group 1) [2, 3]: −74%
- AUC of arthritis score, Average [2, 4]: 0.2
- Percent of vehicle control (group 1) [2, 4]: −100%
- AUC of arthritis score, Average [2, 5]: 0
- Percent of vehicle control (group 1) [2, 5]: −−100%
- AUC of arthritis score, Average [2, 6]: 8
- Percent of vehicle control (group 1) [2, 6]: −78%

Reference: patent US20100099710A1, “SRC FAMILY KINASE INHIBITORS” (priority 2007, published 2010)
